Source: article PMC6752817, “Identification and characterization of a novel heparan sulfate-binding domain in Activin A longest variants and implications for function” (PLoS ONE, 2019)
Entries after “also recorded” stand apart in the source; their conditions may differ.

Experiments:
[1] = tested on: Act A X1 and X2 variant transcripts in U937 cells; experiment: Induction of Act A variant transcripts in U937 cells, PCR; type: cell-based, human
Description: (§1) Total RNA was isolated using TRIzol Reagent (Thermo-Fisher) following the manufacturers protocol. Five μg of glycogen (Thermo-Fisher AM9510) was added to the aqueous phase prior to the addition of isopropanol to facilitate RNA precipitation. For some experiments, RNA quantification was determined using a Nanodrop spectrophotometer. cDNA was prepared from 2 μg of purified RNA, using oligo dT as primer, supplied with the Verso cDNA synthesis kit (Thermo-Fisher # AB1453A) or SuperScript IV Reverse Transcriptase (Thermo-Fisher #18090010) following the manufactures protocol. All PCR reactions were performed using Act A specific primers and GoTaq Green Master Mix (Promega) following the manufacturers protocols. PCR reactions were optimized by gradient PCR, using an Applied Biosystems Veriti Thermal Cycler. PCR products were size fractionated on 1% agarose gels, the bands were isolated, DNA was extracted from gel slices using Micro Bio-Spin columns (Bio Rad# 7326204) and sequenced. All DNA sequencing was performed by the NAPCore Facility at CHOP.
(§2) U937 (human pro-monocytic) and THP-1 (human monocytic) cell lines were grown in RPMI containing 10% fetal bovine serum in a humidified atmosphere of 5% CO2. Cells were treated with PMA (100 ng/ml; 160 nM) for 4 hr (23) or GM-CSF (1 ng/ml) for 8 hr in RPMI containing 1% fetal bovine serum.

[2] = Solid-phase binding of biotinylated peptides (NA-HRP tetramers) to HS-coated plates; settings: for Binding to substrate-bound HS: HS-coated 96-well plates, peptide tetramers with NA-HRP, PBST with 1% BSA, 2 hr, room temperature, OPD read at 450 nm; for Binding to HS in presence of heparin competitor: HS-coated plates, pre-incubation of peptide with excess soluble heparin
Description: Fig 6 Peptides corresponding to the novel HBD bind HS with high affinity. 96-well plates were coated with HS and incubated with tetrameric peptide complexes (HBC) for 2 hrs. Plates were washed, and bound peptides were assessed by addition of OPD substrate. A and B, schematic diagram depict the amino acid sequences of Act A- X2^13-37 and Act A- X3^259-272 peptides and their location within the full-length proteins, respectively. C, solid phase binding assays of Act A peptides to HS. […] Inset, double reciprocal plot that yields a Kd of 4 nM (n = 3) for Act A- X2^13-37.
Peptides encompassing the heparin binding domains, contained the putative Cardin-Weintraub (CW) motif and a minimum of 2 flanking amino acids on the N- and C- terminal sides of the domain. Three Glycine residues were added to the N-terminus of each peptide to provide a flexible linker between an N-terminal biotin tag and the peptide itself (See Table 6). Peptides were purified by reverse phase HPLC and peptide mass was confirmed by MALDI-TOF mass spectrometry. All peptides were synthesized and purified by Peptide 2 (Chantilly, VA). Where indicated, biotinylated peptides were oligomerized into tetramers by incubation with NAHRP (each avidin molecule binding 4 biotins ([57]) as described.
Nunc MaxiSorp flat bottom 96 well plates were coated with HS in 50 mM carbonate buffer (pH 9.4) overnight at 4°C as described. All binding assays were carried out in 1 x PBS, 0.1% tween 20 (PBST) containing 1% bovine serum albumin. Plates were incubated with peptides for a minimum of 2 hr at room temperature with gentle shaking. At the termination of the assay, the plates were washed 3 times with PBST and a final rinse with PBS. Plates were developed by addition of HRP substrate O-phenylenediamine dihydrochloride (OPD) in Citrate-Phosphate buffer (25 mM citric acid, 50 mM sodium phosphate, pH 5) and read at 450 nm in a Bio-Tek Synergy HT plate reader.

U937 cell surface = experiment: Peptide binding to intact U937 cells, FACS; type: cell-based, human; settings: formalin-fixed U937 cells; for Binding to U937 cell surface: biotinylated peptide complexed with NA-488, 2 hr on ice, FACS (FL1); for Binding to U937 cell surface in presence of heparin competitor: peptide complexed with NA-488, excess soluble heparin, FACS
Description: Fig 7 HBD peptides bind to the cell surface with avidity. A, U937 cells were incubated with peptide complexes consisting of biotinylated peptides pre-incubated with NA-488. Following incubation, the cells were washed, and bound peptide was assessed by FACS analysis. […] In contrast, Act A-X3^259-272 peptide fails to bind. Binding specificity was verified using a previously characterized peptide encompassing the high affinity HBD from BMP4. B, representative FACS plots show binding of Act A- X2^13-37 in the absence (blue line) or presence (red line) of heparin competitor. C, representative FACS plots showing binding of Act A- X2^13-37 (blue line), lack of binding by Act A-X3^259-272 (red line) and background signal generated by U937 cells alone (green line). Statistical Analysis (Student’s t test): NA488 vs ActA X2^13-37, NA488 vs BMP4: ****: P< = 0.0001, **: P< = 0.01.
U937 cells were washed with PBS and fixed with 2% buffered formalin for 20 min on ice. The cells were washed with PBS and blocked by incubation in PBS, 1% BSA for 20 min on ice. Approximately […] cells (100 μl) were incubated with peptide tetramers consisting of biotinylated peptide complexed with NA-488. Following incubation for 2 hr on ice, the cells were washed and analyzed on a BD Accuri Flow Cytometer (FL1 channel), located in the Flow Cytometry Core Laboratory at CHOP.

[3] = tested on: Act A X1 and X2 variant transcripts in THP1 cells; experiment: Induction of Act A variant transcripts in THP1 cells, PCR; type: cell-based, human; settings: GM-CSF 1 ng/ml for 8 hr
Description: as §1, §2

[4] = tested on: Act A expression in purified human monocytes; settings: ref [41]; cited from earlier work
Description: It should be noted that the above transcript/protein predictions of variants are based on computational genomic analyses that were conducted initially by the MGC team using ESTs to explore the transcriptome and then subsequently confirmed by whole genome sequencing and bioinformatics. Much of the past and recent extensive literature on Act A has utilized recombinant forms of the X3 variant, but currently there is little information about the expression and structural characteristics of the X1 and X2 variants. Thus, we first asked whether these variants are expressed by myel ...

[5] = rat, in vivo, iv; cited from earlier work
Excerpt: As pointed out above, past and recent studies on Act A biology and function have made use of the X3 variant or the mature protein but to our knowledge, the X1 or X2 variants have not been tested. For example, Harrington et al. used recombinant Act A mature protein to clarify the structural basis by which Fs inhibits Act A signaling. […] Wang et al. carried out a detailed analysis of mechanisms involved in initiation of Act A biological activity, using the X3 ...

[6] = tested on: TIEG expression in THP1 cells; experiment: TIEG (KLF10) mRNA induction in THP1 cells, qPCR; type: cell-based, human; settings: 2 hr, rhAct A or conditioned medium of AD293 cells transfected with X2 or X3 constructs
Excerpt: Fig 4 Expression and secretion of Act A variants. Expression constructs for full length X1, X2 and X3 variants were cloned into pcDNA 3.1 and transfected into AD293 and COS1 cells. A, diagram of Act A expression cassette with His tag on the 3’ end. […] Untransfected cells are shown in lane 2. […] D, immunoblots of conditioned medium samples separated under reducing conditions and probed with anti-His tag antibody. […] The band was undetectable in conditioned medium from cells transfected with the X1 vector (lanes 1, 4 and 9) or un-transfected cells (lanes 7 and 8). Lanes 4–6 are a longer exposure of lanes 1–3. E, THP1 cells were incubated for 2 hrs with conditioned media from AD293 cells that were untransfected (U) or transfected with X2 or X3 constructs. The cells were processed for q-PCR analysis of TIEG expression, an early response gene induced by Act A and TGF-β. […]
To assess biological activity of the expressed Act A variants, THP1 cells were incubated with 3 ml of conditioned medium obtained from cells transfected with each Act A variant for 2 hr, in the absence or presences of an ActA neutralizing antibody (BioLegend # 94746) the cells were pelleted and total RNA was isolated using TRIzol Reagent as described above. Induction of Kruppel-like factor 10 (KLF10, TIEG; accession NM_005655) mRNA, an early response gene induced by Act A and TGF-β was assessed by qPCR.

mutant ALK2 = settings: ref [52]; cited from earlier work
Excerpt: In the musculoskeletal research field, interest in Act A biology has been re-invigorated by recent evidence of its pathogenic roles in the pediatric congenital disorder Fibrodysplasia Ossificans Progressiva (FOP). FOP is characterized by episodic formation of extraskeletal cartilage and bone tissue–a process collectively termed heterotopic ossification (HO)—at multiple sites, eventually involving much of the body. HO is preceded by local inflammation and over time, the accumulated ectopic tissue causes multiple health problems and impediments—including skeletal deformities, chron ...

[7] = PMA 100 ng/ml (160 nM) for 4 hr, semi-quantitative PCR

Molecule: CCCCCCCCCCCCCC(=O)O[C@@H]1[C@@H](C)[C@@]2(O)[C@@H](C=C(CO)C[C@]3(O)C(=O)C(C)=C[C@@H]23)[C@@H]2C(C)(C)[C@]12OC(C)=O [PMA, Phorbol 12-myristate 13-acetate, reference compound]
- Expression of Act A X1 variant transcript in U937 cells [1, 7]: undetectable
- Expression of Act A X2 variant transcript in U937 cells [1, 7]: stimulated expression of transcripts encoding the X2 variant in U937 cells; also recorded: induced expression of Act A-X2

Molecule: [B]-GGGGKKKKKEEEGEGKKK [X3^259-272]
- Binding to substrate-bound HS [2]: failed to interact with HS at any concentration tested; also recorded: failed to interact with substrate-bound HS
- Binding to substrate-bound HS ([2]; listed as Act A-X3^259-272): displays minimal binding
- Binding to U937 cell surface (U937 cell surface): failed to interact with the cells; also recorded: failed to interact with substrate-bound HS or the cell surface
- Binding to U937 cell surface (U937 cell surface; listed as Act A-X3^259-272): fails to bind

Molecule: [B]-GGGLKRRRKKKTPKKKIKKSTHTKKPAR [X2^13-37, biotinylated synthetic peptide encompassing the novel HBD, identical in X1 and X2]
- Binding to substrate-bound HS [2]: interacted with HS with high affinity
- Binding to substrate-bound HS ([2]; listed as Act A- X2^13-37): binds HS with high affinity
- Binding to HS in presence of heparin competitor [2]: binding was blocked by pre-incubation of the peptide with excess heparin
- Binding to HS in presence of heparin competitor ([2]; listed as Act A- X2^13-37): its binding is blocked by addition of soluble heparin
- Binding to U937 cell surface (U937 cell surface): readily and efficiently interacted with the cell surface
- Binding to U937 cell surface (U937 cell surface; listed as Act A- X2^13-37): readily binds to the cell surface
- Binding to U937 cell surface in presence of heparin competitor (U937 cell surface): binding was blocked by pre-treatment with heparin
- Binding to U937 cell surface in presence of heparin competitor (U937 cell surface; listed as Act A- X2^13-37): its interaction is blocked by soluble heparin competitor

Molecule: granulocyte macrophage-colony stimulating factor [GM-CSF]
- Expression of Act A X1 variant transcript in U937 cells ([1]; GM-CSF 1 ng/ml for 8 hr, PCR): only stimulated expression of the X1 variant in U937 cells; also recorded: induced expression of both Act A-X2 and -X1
- Expression of Act A X2 variant transcript in U937 cells ([1]; GM-CSF 1 ng/ml for 8 hr, PCR): upregulated the X2 variant in both cell lines; also recorded: induced expression of both Act A-X2 and -X1
- Expression of Act A X2 variant transcript in THP1 cells [3]: upregulated the X2 variant in both cell lines; also recorded: induced expression of Act A-X2
- Induction of Act A expression in purified human monocytes [4]: induces strong expression of Act A in purified human monocytes

Molecule: mature protein: mature Act A protein (cited studies)
- Circulating half-life (t1/2 fast) [5]: 5.5 min

B1: rhAct A: commercially available recombinant human Act A (protein, UniProt P08476 311-426, looked up)
Inhibin beta A chain: GLECDGKVNICCKKQFFVSFKDIGWNDWIIAPSGYHANYCEGECPSHIAGTSGSSLSFHSTVINHYRMRGHSPFANLKSCCVPTKLRPMSMLYYDDGQNIIKKDIQNMIVEECGCS
modifications: Inhibin beta A chain
- Induction of TIEG expression (words) [6]: TIEG was rapidly upregulated
- Induction of TIEG expression (words) ([6]; listed as rhActA): up-regulated

B2: activin A (protein, UniProt P08476 311-426, looked up)
Inhibin beta A chain: B1 Inhibin beta A chain
modifications: Inhibin beta A chain
- pSMAD1/5/8 signaling through mutant ALK2 (mutant ALK2): elicits pSMAD1/5/8 signaling
